A short description of the data set: in vitro. Conditions: rat, gh3-tre-luc cells.

Structures can show the parent of a compound that is named as a salt. Residues, ends and D or L forms follow the SMILES beside them. No end group written: not given here.

For the setting “AC50 (uM) modified / 1000”, `CON(C)C(=O)Nc1ccc(Cl)c(Cl)c1` [Linuron] gave a CC50 at 24 h above 90 µM.
The same measure, in the same setting: next, `Clc1ccc2[nH]nnc2c1` [5-Chlorobenzotriazole]: above 90 µM.
For the molecule `CC(C)NC(C)Cc1ccc(I)cc1` (stereo not drawn) [Iofetamine hydrochloride], the CC50 at 24 h (AC50 (uM) modified / 1000, Tox21_110001=Tox21_111239, viability, 1 nM T3 present, 24 h) is above 50 µM.
In turn, `C[C@]12CCC(=O)C=C1CC[C@H]1[C@@H]3CC[C@](O)(C(=O)CO)[C@@]3(C)C[C@H](O)[C@@]12F` [Fludrocortisone] gave a cytotoxic concentration (CC50) at 24 h (AC50 (uM) modified / 1000) above 50 µM.
As to `O=C(O)c1cccc(Cl)n1` [6-Chloro-2-picolinic acid], the CC50 at 24 h (AC50 (uM) modified / 1000) was above 90 µM.
On to `CC(C)=CCN1CC[C@]2(C)c3cc(O)ccc3C[C@H]1[C@H]2C` [(+)-Pentazocine succinate], for which the CC50 at 24 h (AC50 (uM) modified / 1000, Tox21_110001=Tox21_112876, viability, 1 nM T3 present, 24 h) is above 90 µM.
Turning to `COC(=O)CCC(=O)CN` [Methyl aminolevulinate hydrochloride], the CC50 at 24 h (AC50 (uM) modified / 1000) is above 50 µM.
The same measure, in the same setting: next, `CC(=O)/C=C/[C@H]1C(C)=CC[C@@H](C)C1(C)C` [alpha-Irone]: above 90 µM; `C=C(C)C(=O)NCCC[N+](C)(C)C` [N,N,N-Trimethyl-3-[(2-methylacryloyl)amino]propan-1-aminium chloride]: above 90 µM; `CCOC(=O)c1ccc(O)cc1` [Ethylparaben]: above 90 µM.
On the same count and under the same terms, next, `[O-][N+](=Nc1ccccc1)c1ccccc1` [Azoxybenzene]: above 90 µM.
The molecule `c1ccc(C2(N3CCCC3)CCCCC2)cc1` [Rolicyclidine] showed a CC50 at 24 h (AC50 (uM) modified / 1000, Tox21_110001=Tox21_111832, viability, 1 nM T3 present, 24 h) of 14.9 µM.
For the molecule `Cc1cc(C(C)(C)C)c(O)c(C)c1Cn1c(=O)n(Cc2c(C)cc(C(C)(C)C)c(O)c2C)c(=O)n(Cc2c(C)cc(C(C)(C)C)c(O)c2C)c1=O` [Cyanox CY 1790], the CC50 at 24 h (AC50 (uM) modified / 1000) is above 90 µM.
Same read-out and setting: with `C/C=C/C=C/CO` [(2E,4E)-Hexa-2,4-dien-1-ol] the figure was above 90 µM.
On to `SCc1ccccc1` [Benzenemethanethiol], for which the CC50 at 24 h (AC50 (uM) modified / 1000, Tox21_110001=Tox21_200129, viability, 1 nM T3 present, 24 h) was above 90 µM.
Where the note is “AC50 (uM) modified / 1000”, `C=CCOc1cc(Cl)ccc1C(=O)NCCN(CC)CC` [Alloclamide] yielded a CC50 at 24 h of 9.52 µM. In other words, the single-digit micromolar range.
As for `N[C@@H](C(=O)N[C@@H]1C(=O)N2C(C(=O)O)=C(Cl)CC[C@H]12)c1ccccc1` [Loracarbef monohydrate], the CC50 at 24 h (AC50 (uM) modified / 1000) is above 50 µM.
Turning to `O=S(=O)(NS(=O)(=O)C(F)(F)F)C(F)(F)F` [Triethylsulfonium bis(trifluoromethanesulfonyl)imide], for the setting “AC50 (uM) modified / 1000”, the CC50 at 24 h was above 90 µM.
Under “AC50 (uM) modified / 1000”, `CCCCCC/C(C=O)=C\c1ccccc1` [Hexyl cinnamic aldehyde] registered a CC50 at 24 h above 90 µM.
For the molecule `Oc1ccc(C(=C(Cl)Cl)c2ccc(O)cc2)cc1` [Bis(4-hydroxyphenyl)-2,2-dichloroethylene], for the setting “AC50 (uM) modified / 1000”, the CC50 at 24 h was above 90 µM.
On the same count and under the same terms, with `C1=CC2C3C=CC(C3)C2C1` (stereo not drawn) [Dicyclopentadiene] the figure was above 90 µM; with `Cn1cnc2c(F)c(Nc3ccc(Br)cc3Cl)c(C(=O)NOCCO)cc21` [Selumetinib], above 50 µM.
On the same count and under the same terms, with `CCCCCCCCCCCCCCCCCl` [1-Chlorohexadecane] the figure was above 20 µM.
For the molecule `C[C@H]1NCc2cc(-c3ccc4c(=O)c(C(=O)O)cn(C5CC5)c4c3OC(F)F)ccc21` [Garenoxacin mesylate hydrate], the CC50 at 24 h (AC50 (uM) modified / 1000) is above 50 µM.
Under “AC50 (uM) modified / 1000”, RKDVY [Thymopentin] showed a CC50 at 24 h above 50 µM.
Same read-out and setting: next, `O=C(NCN1CCOCC1)c1cnccn1` [Morphazinamide]: above 50 µM; `O=C(Nc1ccc(Cl)cc1)Nc1ccc(Cl)c(C(F)(F)F)c1` [Cloflucarban]: 6.22 µM.
Still for that read-out and setting: next, `CC(CCc1ccc(O)cc1)NCC(O)c1ccc(O)cc1` (stereo not drawn) [Ractopamine hydrochloride]: above 50 µM; `O=C(O)CNC(=O)c1ccccc1` [Hippuric acid]: above 50 µM; `C[N+](C)=CCl` [N-(Chloromethylidene)-N-methylmethanaminium chloride]: above 90 µM.
The same measure, in the same setting: next, `CC1(C)S[C@@H]2[C@H](N3C(=O)[C@@H](c4ccccc4)NC3(C)C)C(=O)N2[C@H]1C(=O)O` [Hetacillin potassium]: above 50 µM.
On to `COC(=O)[C@H](Cc1ccccc1)NC(=O)[C@@H](N)CC(=O)O` [Aspartame] (H-Asp-Phe-OMe), for which, for the setting “AC50 (uM) modified / 1000”, the CC50 at 24 h was above 90 µM.
On the same count and under the same terms, next, `ClCCOCCCl` [Bis(2-chloroethyl) ether]: above 90 µM; `CCC1OCC(COc2ccc(Oc3ccccc3)cc2)O1` (stereo not drawn) [Diofenolan]: above 90 µM; `Cc1ccc(N(CC2=NCCN2)c2cccc(O)c2)cc1` [Phentolamine]: 45.1 µM.
On the same count and under the same terms, next, `COc1ccccc1/C=C/C=O` [trans-2-Methoxycinnamaldehyde]: above 90 µM; `CS(=O)(=O)OCCCNCCCOS(C)(=O)=O` [Improsulfan tosylate]: above 50 µM.
`CC/C=C\CC/C=C/CO` [trans-2,cis-6-Nonadien-1-ol] yielded a CC50 at 24 h (AC50 (uM) modified / 1000) above 90 µM.
Still for that read-out and setting: with `CC(C)[C@@H](N)C(=O)O` [D-Valine] the figure was above 50 µM.
With `COC(=O)c1ccccc1S(=O)(=O)NC(=O)Nc1nc(C)cc(C)n1` [Sulfometuron-methyl], for the setting “AC50 (uM) modified / 1000, Tox21_110001=Tox21_301843, viability, 1 nM T3 present, 24 h”, the CC50 at 24 h was above 90 µM.
For the setting “AC50 (uM) modified / 1000”, `Cc1ccc(C(C)C)cc1` [p-Cymene] displayed a CC50 at 24 h above 90 µM.
The same measure, in the same setting: next, `O=C(CBr)OCc1ccccc1` [Benzyl bromoacetate]: above 90 µM.
In turn, `NC(=O)c1ccc[n+]([C@@H]2O[C@H](COP(=O)([O-])OP(=O)(O)OC[C@H]3O[C@@H](n4cnc5c(N)ncnc54)[C@H](O)[C@@H]3O)[C@@H](O)[C@H]2O)c1` [Nadide] yielded a CC50 at 24 h (AC50 (uM) modified / 1000) above 20 µM.
The same measure, in the same setting: with `CCOCCOCCOCC` [Diethylene glycol diethyl ether] the figure was above 90 µM; with `CCc1c2c(nc3ccc(OC(=O)N4CCC(N5CCCCC5)CC4)cc13)-c1cc3c(c(=O)n1C2)COC(=O)[C@]3(O)CC` [Irinotecan hydrochloride], above 50 µM; with `COS(C)(=O)=O` [Methyl methanesulfonate], above 100 µM.
The molecule `COc1cc(CC(C)N)cc2c1OCO2` (stereo not drawn) [1-(7-Methoxy-1,3-benzodioxol-5-yl)propan-2-amine hydrochloride] had a CC50 at 24 h (AC50 (uM) modified / 1000, Tox21_110001=Tox21_112842, viability, 1 nM T3 present, 24 h) above 100 µM.
For `CCC(=O)CC` [3-Pentanone], the CC50 at 24 h (AC50 (uM) modified / 1000) is above 90 µM.
Consider `CCCOC(=O)NCCCN(C)C` [Propamocarb hydrochloride], for which the CC50 at 24 h (AC50 (uM) modified / 1000) was above 90 µM.
On the same count and under the same terms, with `O=S(=O)(O)c1cccc2ccccc12` [Sodium 1-naphthalenesulfonate] the figure was above 90 µM; with `CC/C=C(\C(=O)N[C@@H]1C(=O)N2C(C(=O)OCOC(=O)C(C)(C)C)=C(COC(N)=O)CS[C@H]12)c1csc(N)n1` [Cefcapene pivoxil hydrochloride], above 50 µM.
Same read-out and setting: with `OCC1CC=CCC1` (stereo not drawn) [Cyclohex-3-en-1-ylmethanol] the figure was above 90 µM; with `O=C(O)Cc1cccc2ccccc12` [Potassium 1-naphthaleneacetate], above 90 µM; with `CCN[C@H]1CN(CCCOC)S(=O)(=O)c2sc(S(N)(=O)=O)cc21` [Brinzolamide], above 20 µM.
Same read-out and setting: with `CO/N=C(\C(=O)N[C@@H]1C(=O)N2C(C(=O)O)=C(CSc3nc(C)c(CC(=O)O)s3)CS[C@H]12)c1csc(N)n1` [Cefodizime sodium] the figure was above 50 µM; with `COC(Cc1ccccc1)OC` [(2,2-Dimethoxyethyl)benzene], above 90 µM.
For the molecule `COCCCOCCCOC` [Dipropylene glycol dimethyl ether], the CC50 at 24 h (AC50 (uM) modified / 1000) is above 90 µM.
For the molecule `CC(C)OC(=O)C(O)(c1ccc(Cl)cc1)c1ccc(Cl)cc1` [Chloropropylate], the CC50 at 24 h (AC50 (uM) modified / 1000, Tox21_110001=Tox21_301914, viability, 1 nM T3 present, 24 h) was found to be 74.2 µM.
As to `CC(C)=CC(C)(C)C` [2,4,4-Trimethyl-2-pentene], the CC50 at 24 h (AC50 (uM) modified / 1000) is above 90 µM.
Take `C=COCC(C)C` [Vinyl isobutyl ether]: under “AC50 (uM) modified / 1000”, the CC50 at 24 h is above 100 µM.
Same read-out and setting: next, `CCC(C)CCCC(C)(C)O` (stereo not drawn) [2,6-Dimethyloctan-2-ol]: above 90 µM; `O=C(O)c1cccc(C[C@@H]2COc3ccc(OCc4nc5cc(F)ccc5s4)cc3[C@@H]2O)c1` [CP-085958]: above 90 µM; `Nc1ncnc2c1ncn2[C@@H]1O[C@H](CO)[C@@H](O)[C@H]1O` [Adenosine]: above 50 µM.
Turning to `O=[P@]1(N(CCCl)CCCl)N[C@H](OO)CCO1` [4-Hydroperoxy cyclophosphamide], the CC50 at 24 h (AC50 (uM) modified / 1000, Tox21_110001=Tox21_113608, viability, 1 nM T3 present, 24 h) is above 50 µM.
For `O=S(=O)(Oc1ccc(Cl)cc1)c1ccccc1` [Fenson], the CC50 at 24 h (AC50 (uM) modified / 1000) was above 90 µM.
In the case of `CN(C)C(=O)CNC(=O)Cc1ccccc1` [N,N-Dimethyl-2-(2-phenylacetamido)acetamide], where the note is “AC50 (uM) modified / 1000”, the half-maximal cytotoxic concentration (CC50) at 24 h was above 50 µM.
The molecule `CCC(=O)OCC(=O)[C@@]1(OC(=O)CC)[C@H](C)C[C@H]2[C@@H]3CCC4=CC(=O)C=C[C@]4(C)[C@@]3(F)[C@@H](O)C[C@@]21C` [Dexamethasone dipropionate] yielded a CC50 at 24 h (AC50 (uM) modified / 1000) above 50 µM.
As for `COc1cc(C(=O)NCc2ccc(OCCN(C)C)cc2)cc(OC)c1OC` [Trimethobenzamide hydrochloride], under “AC50 (uM) modified / 1000”, the 50% cytotoxic concentration (CC50) at 24 h is above 20 µM.
Still for that read-out and setting: next, `O=CNc1ccccc1` [Formanilide]: above 90 µM; `O=C(O)CO` [Glycolic acid]: above 90 µM.
`Oc1ccccc1/C=N/Cc1ccccc1` [Norletimol] yielded a 50% cytotoxic concentration (CC50) at 24 h (AC50 (uM) modified / 1000) above 50 µM.
Same read-out and setting: with `NNc1ccc(C(=O)O)cc1` [4-Hydrazinobenzoic acid] the figure was above 90 µM.

Values taken from publication PMC6792352, “Limited Chemical Structural Diversity Found to Modulate Thyroid Hormone Receptor in the Tox21 Chemical Library” (Environmental Health Perspectives, 2019).
